Measured values reported in patent US20120148530A1, “Method for the treatment or prevention of virus infection using polybiguanide-based compounds” (Novaflux Biosciences, Inc., priority 2003, published 2012).

Assays:
HeLa cells = assay: HeLa cell viability, MTT, 2 hr exposure; type: cell-based
Method: HeLa cells (ATCC designation CCL-2) were maintained in Dulbecco's Modified Eagle's medium (DMEM). […] All three cell types were cultured in media supplemented with 10% fetal bovine serum (FBS), […] (0.3 mg/ml), antibiotics (penicillin, streptomycin, and kanamycin at 0.04 mg/ml each), and 0.05% sodium bicarbonate.
(§1) The experiments described below were conducted to determine the activity and cytotoxicity of short chain compounds having one or two biguanide groups. […] The efficacy determinations were made using P4R5 cells, which allow for the detection of bacterial β-galactosidase activity upon release of viral tat protein into the parent HeLa cell.

HIV-1 IIIB [1] = assay: Modified viral binding inhibition assay: pre-treatment, wash, then HIV-1 IIIB challenge; type: cell-based; conditions: 0.1% or 0.01%
Method: In a modified viral binding inhibition assay (VBI) assay, HIV-1-susceptible P4R5 cells were maintained for 1 or 2 hr in the presence of PEHMB (0.1% and 0.01%) and then washed extensively before challenge with HIV-1 IIIB.
HIV-1-susceptible target cells were incubated with PEHMB (0.1%) for 2 hr, washed extensively with PBS, and subsequently challenged with HIV-1 IIIB at 0, 0.5, 1, 2, 3, and 4 hours after washing.

P4R5 cells = assay: P4R5 cell viability, MTT
Source text: (§2) To build on the information provided by the monomeric biguanide data a series of polybiguanide molecules were synthesized with varied linker length as described in Example 1. In these molecules the methylene spacer arms between the biguanide functionalities (X and Y in Forumla I) have been changed.
As described above the effect of PEHMB and related compounds on P4R5 cell viability after a two-hour exposure to the compound was compared to the effects of control compounds such as N-9. […] To further evaluate the effect of this class of compound on various types of cells (in particular PEHMB P4-R5 cells, ME-180 cells (ATCC HTB-33; cervical epidermoid carcinoma), VK2/E6E7 human vaginal cell line (Fichorova et al. 1997 Biol. Reprod. 57:847-855), and human primary vaginal karatinocytes (isolated from tissues obtained from vaginal reconstructive surgery)) the compounds were incubated with the different cells for various lengths of time before assessment of cell viability.

CXCR4 [2] = molecular target: T1, CXCR4 (Homo sapiens, UniProt P61073); assay: FACS analysis of CXCR4 on P4-R5 cells; type: cell-based; conditions: BCD 0.3%
T1 construct: host or cells: P4-R5 (P4-CCR5) cells, HeLa-derived
Source text: (§3) After a 2 hr exposure to PEHMB (0.1%), P4-R5 cell presentation of CXCR4 was reduced from 98% to 29% (FIG. 6).

CXCR4 [3] = molecular target: T1, CXCR4; assay: FACS analysis of CXCR4 on PM-1 cells; type: cell-based; conditions: PEHMB 0.1%, BCD 0.3%, untreated 45%
Method: as §3
A similar experiment (FIG. 7) was performed using the PM-1 T lymphocyte cell line (Lusso et al. 1995 J. Virol 69:3712-3720). […] However, reductions in CD3 were not seen in response to compound exposure, indicating specificity of action with respect to PEHMB's impact on CXCR4 (data not shown).

HIV-1 IIIB [4] = assay: HIV-1 IIIB viral binding/entry inhibition in P4R5 cells; type: cell-based
Method: as §2
Antiviral assays include a viral binding/entry assay in which reporter cells such as P4R5 are incubated with virus in the presence of compound for two hours at which time the drug is washed off and the cells incubated for 48 hrs before measuring the intracellular production of β-galactosidase (Ojwang et al. 1995 Antimicrobial Agents and Chemotherapy 39:2426-2435). In cell-associated virus inhibition (CAI) assays, HIV-1111B infected SUP T1 cells are pelleted to remove cell free virus and incubated with each compound for ten minutes at 37° C. before a 1:10 dilution in media and incubation with P4R5 indicator cells for 48 hours before measuring β-galactosidase activity. In cell-free virus assays HIV-1IIIB or BaL were incubated with each compound for 10 minutes at 37° C. before a 1:100 dilution in RPM! 1640, and incubated for 2 hours with P4R5 cells, and subsequent assays for viral infectivity were performed 48 hours later using the β-galactosidase method.
Select compounds were assessed for their ability to inhibit events necessary for HIV-1 binding and entry.
The same strategy was tested using PEHMB.

Vk2/E6E7 cells = assay: Vk2/E6E7 cell viability
ME-180 cells = assay: ME-180 cell viability; type: cell-based
[5] = tested on: Primary vaginal keratinocytes; assay: Primary vaginal keratinocyte viability; type: cell-based, human
cell-free HIV-1 = assay: Cell-free HIV-1 infectivity in P4R5 cells, β-galactosidase readout; type: cell-based; conditions: 2 hr exposure of cells to compounds in the presence of virus
Method: as §1

T1 sequence (P61073 whole entry): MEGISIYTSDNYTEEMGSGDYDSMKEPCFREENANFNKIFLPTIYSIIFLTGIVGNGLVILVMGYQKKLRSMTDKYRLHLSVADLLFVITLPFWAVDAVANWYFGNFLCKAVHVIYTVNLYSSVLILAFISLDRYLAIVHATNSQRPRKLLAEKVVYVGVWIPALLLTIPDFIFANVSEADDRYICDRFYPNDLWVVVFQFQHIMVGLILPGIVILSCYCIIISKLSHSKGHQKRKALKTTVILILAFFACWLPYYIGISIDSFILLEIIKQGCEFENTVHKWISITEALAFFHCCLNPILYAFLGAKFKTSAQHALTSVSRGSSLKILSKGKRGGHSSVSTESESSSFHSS

Compound: xyleneylene bis-biguanide
- CC50 (%) (HeLa cells): 0.385%

Compound: dextran sulfate
- residual antiviral activity after removal of compound (HIV-1 IIIB [1]): no residual antiviral activity

Compound: OC[C@H]1O[C@@H]2O[C@H]3[C@H](O)[C@@H](O)[C@@H](O[C@H]4[C@H](O)[C@@H](O)[C@@H](O[C@H]5[C@H](O)[C@@H](O)[C@@H](O[C@H]6[C@H](O)[C@@H](O)[C@@H](O[C@H]7[C@H](O)[C@@H](O)[C@@H](O[C@H]8[C@H](O)[C@@H](O)[C@@H](O[C@H]1[C@H](O)[C@H]2O)O[C@@H]8CO)O[C@@H]7CO)O[C@@H]6CO)O[C@@H]5CO)O[C@@H]4CO)O[C@@H]3CO [BCD, β-cyclodextrin]
- cytotoxicity, FIG. 4A (P4R5 cells): non-cytotoxic
- effect on CXCR4 (CXCR4 [2]): no apparent effect
- CXCR4 presentation (CXCR4 [3]): 22%
- remaining infectivity, % of mock-treated cells (HIV-1 IIIB [4]; PEHMB 0.1%, BCD 0.3%, HIV-1 strain IIIB): 27%

Compound: nonoxynol-9 [N-9]
- CC50 (P4R5 cells; MTT): 0.003%
- CC50 % 10 minute exposure (P4R5 cells; P4-R5 cells, 10 minute exposure): 0.2%
- CC50 % 2 hr exposure (P4R5 cells; P4-R5 cells, 2 hr exposure): 0.008%
- CC50 % 6 hr exposure (P4R5 cells; P4-R5 cells, 6 hr exposure): 0.005%
- CC50 (%) (P4R5 cells; P4R5 cell data (2 hr exposure), Table 6): 0.005%
- CC50 (%) (P4R5 cells; P4R5 cells, 2 hr exposure, MTT (Table 3)): 0.007%
- CC50 (%) (P4R5 cells; Table 5): 0.007%
- CC50 % 10 minute exposure (Vk2/E6E7 cells; 10 minute exposure): 0.03%
- CC50 % 2 hr exposure (Vk2/E6E7 cells; 2 hr exposure): 0.006%
- CC50 % 6 hr exposure (Vk2/E6E7 cells; 6 hr exposure): 0.002%
- CC50 (%) (HeLa cells): 0.007%
- CC50 % 10 minute exposure (ME-180 cells; 10 minute exposure): 0.20%
- CC50 % 2 hr exposure (ME-180 cells; 2 hr exposure): 0.008%
- CC50 % 6 hr exposure (ME-180 cells; 6 hr exposure): 0.007%
- IC50 (HIV-1 IIIB [4]): 0.003%
- IC50 (%) (HIV-1 IIIB [4]; P4R5 cells, 2 hr exposure in the presence of HIV-1IIIB, Table 6): 0.005%
- IC50 (%) (HIV-1 IIIB [4]; Table 3): 0.005%
- IC50 (%) (HIV-1 IIIB [4]; Table 5): 0.005%
- CC50 % 2 hr exposure [5]: 0.007%
- IC50 (%) (cell-free HIV-1): 0.005%

Compound: N=C(N)NC(=N)Nc1ccccc1 [1-phenyl biguanide]
- CC50 (%) (HeLa cells): 0.150%
- IC50 (%) (cell-free HIV-1): 0.522%

Compound: [H]/N=C(/N)N/C(=N/[H])NCCc1ccccc1 [1-phenethyl biguanide]
- CC50 (%) (HeLa cells): 0.538%
